Assay type in all cases: cell-based
One assay addresses T1, GLP-1R (Homo sapiens, UniProt P43220).
T1 construct: expressed in transfected cells
The assay is described as follows: CreLuc method (CRE-luciferase reporter), HEK293/pGM-CREB-L-Luc/GLP-1R pool. Particulars: 6 h incubation, read-out: EC50 (pM) for each receptor GLP-1R. The protocol: (§1) 1. Insulinotropic analogues can bind to the target receptor on the cell membrane, activate the cAMP response element (CRE), and initiate the expression of downstream luciferase. The expression level is positively correlated with the biological activity of the analogue being tested. After activation, luciferase substrate is added for chemiluminescence detection, and the luminescence intensity is determined to characterize the biological activity of the test compounds. Therefore, the target peptide derivatives (or polypeptide derivatives, i.e., TG1-TG94) prepared in Example 1 and Example 2 can be tested by the CreLuc method. The specific steps are as follows: The stably transfected cell lines HEK293/pGM-CREB-L-Luc/GLP-1R pool, HEK293/pGM-CREB-L-Luc/GIPR pool, and 293HEK/pGM-CREB-L-Luc/GCGR pool were constructed. […] The corresponding test cells were digested (1 min), dispersed by pipetting, and centrifuged (1000 rpm, 5 min). The culture medium was discarded, and the cells were resuspended in freestyle medium, centrifuged again, collected, and counted. The cells were then diluted to a cell density of 5 x 10^5 cells/mL and then added to the detection wells of a 384-well plate (40 µL/20,000 cells/well). Echo was used to add the corresponding analyte dilution series. The cell plate was incubated at 37°C and 5% CO2 for 6 h, then ONE-GLO (20 µL/well) was added for detection. It was kept in the dark for 3 min, then a chemiluminescent microplate reader was used for determination. The plate was read within 30 min, and the determination results were recorded. […] Table 3: EC50 values for target peptide derivatives
Background: A reporter such as luciferase makes a cellular process visible.

A further assay has as its target T2, GIPR (Homo sapiens, UniProt P48546).
T2 construct: expressed in transfected cells
T2 sequence (P48546 22-466): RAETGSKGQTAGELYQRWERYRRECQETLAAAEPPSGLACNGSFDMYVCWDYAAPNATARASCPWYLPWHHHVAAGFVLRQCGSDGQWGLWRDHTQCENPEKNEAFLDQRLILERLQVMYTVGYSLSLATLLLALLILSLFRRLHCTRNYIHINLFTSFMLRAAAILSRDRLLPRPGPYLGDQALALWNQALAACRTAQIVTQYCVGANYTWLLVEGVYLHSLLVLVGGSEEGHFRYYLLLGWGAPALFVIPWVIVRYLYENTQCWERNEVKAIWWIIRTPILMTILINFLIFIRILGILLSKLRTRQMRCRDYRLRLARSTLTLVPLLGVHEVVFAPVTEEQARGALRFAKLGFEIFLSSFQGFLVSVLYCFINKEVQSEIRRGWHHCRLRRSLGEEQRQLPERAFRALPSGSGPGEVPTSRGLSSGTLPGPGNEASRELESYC
As to the kind of experiment: CreLuc method (CRE-luciferase reporter), HEK293/pGM-CREB-L-Luc/GIPR pool. The conditions noted are these: 6 h incubation, read-out: EC50 (pM) for each receptor GIPR. The protocol:
as §1

Another assay has as its target T3, GCGR (Homo sapiens, UniProt P47871).
T3 construct: expressed in transfected cells
The assay is described as follows: CreLuc method (CRE-luciferase reporter), 293HEK/pGM-CREB-L-Luc/GCGR pool. Particulars: 6 h incubation, read-out: EC50 (pM) for each receptor GCGR. The procedure: as §1

*1 amine or outer side, *2 acyl side, *3 side chain or, on linkers, in order; H or OH if unused. Where a SMILES comes first, the peptide text is derived from it. Bridges are numbered along the chain shown (N, C = ends). [ ]: non-standard residue; d: D form. X1 = O=C(O)CCCCCCCCCCCCCCCCCCC(=O)N[C@@H](CCCCNC(=O)COCCOCCNC(=O)COCCOCCNC(=O)CCC(=O)N(CCNC(=O)C[*:1])CCNC(=O)C[*:2])C(=O)O; Phe(2-F) = N[C@@H](Cc1ccccc1F)C(=O)O; αMeL = CC(C)C[C@](C)(N)C(=O)O; αMeK = C[C@](N)(CCCCN)C(=O)O; αMeS = C[C@](N)(CO)C(=O)O; Aib = CC(C)(N)C(=O)O

A word on the EC50: it is the concentration that produces a half-maximal response.

T1 sequence (P43220 24-463, species assumed): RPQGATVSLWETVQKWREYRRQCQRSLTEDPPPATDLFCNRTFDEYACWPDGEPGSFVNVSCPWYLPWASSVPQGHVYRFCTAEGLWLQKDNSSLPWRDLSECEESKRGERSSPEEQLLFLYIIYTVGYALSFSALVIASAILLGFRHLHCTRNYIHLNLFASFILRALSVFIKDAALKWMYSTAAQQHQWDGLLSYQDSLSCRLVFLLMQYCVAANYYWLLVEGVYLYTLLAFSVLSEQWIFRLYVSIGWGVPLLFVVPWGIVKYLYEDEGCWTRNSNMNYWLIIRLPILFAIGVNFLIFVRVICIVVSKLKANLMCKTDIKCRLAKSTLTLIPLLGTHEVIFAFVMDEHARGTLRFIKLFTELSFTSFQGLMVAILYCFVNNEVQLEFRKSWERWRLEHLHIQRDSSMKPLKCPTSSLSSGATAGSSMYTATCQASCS
T3 sequence (P47871 26-477, species assumed): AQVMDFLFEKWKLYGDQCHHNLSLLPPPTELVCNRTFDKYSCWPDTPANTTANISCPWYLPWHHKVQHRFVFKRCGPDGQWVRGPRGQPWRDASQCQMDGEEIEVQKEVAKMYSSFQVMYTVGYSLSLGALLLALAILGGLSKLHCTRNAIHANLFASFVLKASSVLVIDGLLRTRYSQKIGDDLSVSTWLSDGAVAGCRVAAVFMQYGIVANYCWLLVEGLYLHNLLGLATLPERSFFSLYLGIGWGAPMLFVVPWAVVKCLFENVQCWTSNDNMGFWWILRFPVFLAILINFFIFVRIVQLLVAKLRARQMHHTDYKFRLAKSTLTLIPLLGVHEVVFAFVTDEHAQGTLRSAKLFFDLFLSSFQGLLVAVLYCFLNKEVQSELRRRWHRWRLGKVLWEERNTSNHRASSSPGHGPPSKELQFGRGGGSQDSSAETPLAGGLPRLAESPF

For `CC[C@H](C)[C@@H]1NC(=O)[C@H](Cc2ccccc2)NC(=O)[C@@H](NC(=O)C(C)(C)NC(=O)[C@H](CCC(N)=O)NC(=O)[C@H](C)NC(=O)[C@H](CCCCNC(C)=O)NC(=O)[C@H](CCCCN)NC(=O)[C@H](CC(=O)O)NC(=O)[C@H](CC(C)C)NC(=O)[C@](C)(CC(C)C)NC(=O)[C@@H](NC(=O)[C@H](CO)NC(=O)[C@H](Cc2ccc(O)cc2)NC(=O)[C@H](CC(=O)O)NC(=O)[C@H](CO)NC(=O)[C@@H](NC(=O)[C@H](Cc2ccccc2F)NC(=O)[C@@H](NC(=O)CNC(=O)[C@H](CCC(N)=O)NC(=O)C(C)(C)NC(=O)[C@@H](N)Cc2ccc(O)cc2)[C@@H](C)O)[C@@H](C)O)[C@@H](C)CC)CCCCNC(=O)CN(C(=O)CCCNC(=O)COCCOCCNC(=O)COCCOCCNC(=O)CC[C@H](NC(=O)CCCCCCCCCCCCCCCCCCC(=O)O)C(=O)O)CC(=O)NCCCC[C@@H](C(=O)NCC(=O)NCC(=O)N2CCC[C@H]2C(=O)N[C@@H](CO)C(=O)N[C@@H](CO)C(=O)NCC(=O)N[C@@H](C)C(=O)N2CCC[C@H]2C(=O)N2CCC[C@H]2C(=O)N2CCC[C@H]2C(=O)N[C@@H](CO)C(N)=O)NC(=O)[C@H](CC(C)C)NC(=O)[C@H](CC(C)C)NC(=O)[C@H](Cc2ccc(O)cc2)NC(=O)[C@H](CCC(=O)O)NC1=O` [TG85], the EC50 at GLP-1R stood at 254 pM; on GIPR it was 61.2 pM; at GCGR, 330 pM.

With `CC[C@H](C)[C@@H]1NC(=O)[C@H](Cc2ccccc2)NC(=O)[C@@H](NC(=O)[C@H](Cc2c[nH]cn2)NC(=O)[C@H](CCC(N)=O)NC(=O)[C@H](C)NC(=O)[C@H](CCCCNC(C)=O)NC(=O)[C@H](CCCCN)NC(=O)[C@H](CC(=O)O)NC(=O)[C@H](CC(C)C)NC(=O)[C@](C)(CC(C)C)NC(=O)[C@@H](NC(=O)[C@H](CO)NC(=O)[C@H](Cc2ccc(O)cc2)NC(=O)[C@H](CC(=O)O)NC(=O)[C@H](CO)NC(=O)[C@@H](NC(=O)[C@H](Cc2ccccc2)NC(=O)[C@@H](NC(=O)CNC(=O)[C@H](CCC(N)=O)NC(=O)C(C)(C)NC(=O)[C@@H](N)Cc2ccc(O)cc2)[C@@H](C)O)[C@@H](C)O)[C@@H](C)CC)CSCC(=O)NCCN(C(=O)CCC(=O)NCCOCCOCC(=O)NCCOCCOCC(=O)NCCCC[C@H](NC(=O)CCCCCCCCCCCCCCCCCCC(=O)O)C(=O)O)CCNC(=O)CSC[C@@H](C(=O)NCC(=O)NCC(=O)N2CCC[C@H]2C(=O)N[C@@H](CO)C(=O)N[C@@H](CO)C(=O)NCC(=O)N[C@@H](C)C(=O)N2CCC[C@H]2C(=O)N2CCC[C@H]2C(=O)N2CCC[C@H]2C(=O)N[C@@H](CO)C(N)=O)NC(=O)[C@H](CC(C)C)NC(=O)[C@H](CC(C)C)NC(=O)[C@H](Cc2ccc(O)cc2)NC(=O)[C@H](CCC(=O)O)NC1=O` [TG32] (H-Y[Aib]QGTFTSDYSI[αMeL]LDKK(Ac)AQHCFIEYLLCGGPSSGAPPPS-NH2; linker 21-28 via X1), the results for the EC50 on GLP-1R, on GIPR and at GCGR were 34 pM, 11.7 pM and 197 pM, respectively.

Regarding `CC[C@H](C)[C@@H]1NC(=O)[C@H](Cc2ccccc2)NC(=O)[C@@H](NC(=O)[C@H](CCC(N)=O)NC(=O)[C@H](CCC(N)=O)NC(=O)[C@H](C)NC(=O)[C@H](CCCCNC(C)=O)NC(=O)[C@](C)(CCCCN)NC(=O)[C@H](CC(=O)O)NC(=O)[C@H](CC(C)C)NC(=O)[C@H](CC(C)C)NC(=O)[C@@H](NC(=O)[C@](C)(CO)NC(=O)[C@H](Cc2ccc(O)cc2)NC(=O)[C@H](CC(=O)O)NC(=O)[C@H](CO)NC(=O)[C@@H](NC(=O)[C@H](Cc2ccccc2F)NC(=O)[C@@H](NC(=O)CNC(=O)[C@H](CCC(N)=O)NC(=O)C(C)(C)NC(=O)[C@@H](N)Cc2ccc(O)cc2)[C@@H](C)O)[C@@H](C)O)[C@@H](C)CC)CSCC(=O)NCCN(C(=O)CCC(=O)NCCOCCOCC(=O)NCCOCCOCC(=O)NCCCC[C@H](NC(=O)CCCCCCCCCCCCCCCCCCC(=O)O)C(=O)O)CCNC(=O)CSC[C@@H](C(=O)NCC(=O)NCC(=O)N2CCC[C@H]2C(=O)N[C@@H](CO)C(=O)N[C@@H](CO)C(=O)NCC(=O)N[C@@H](C)C(=O)N2CCC[C@H]2C(=O)N2CCC[C@H]2C(=O)N2CCC[C@H]2C(=O)N[C@@H](CO)C(N)=O)NC(=O)[C@H](CC(C)C)NC(=O)[C@H](CC(C)C)NC(=O)[C@H](Cc2ccc(O)cc2)NC(=O)[C@H](CCC(=O)O)NC1=O` [TG56] (H-Y[Aib]QGT[Phe(2-F)]TSDY[αMeS]ILLD[αMeK]K(Ac)AQQCFIEYLLCGGPSSGAPPPS-NH2; linker 21-28 via X1), the EC50 on GLP-1R was 197 pM; at GIPR, 39.5 pM; on GCGR it was 681 pM.

Consider `CC[C@H](C)[C@H](NC(=O)[C@H](CO)NC(=O)[C@H](Cc1ccc(O)cc1)NC(=O)[C@H](CC(=O)O)NC(=O)[C@H](CO)NC(=O)[C@@H](NC(=O)[C@H](Cc1ccccc1)NC(=O)[C@@H](NC(=O)CNC(=O)[C@H](Cc1c[nH]cn1)NC(=O)C(C)(C)NC(=O)[C@@H](N)Cc1c[nH]cn1)[C@@H](C)O)[C@@H](C)O)C(=O)N[C@@H](Cc1ccc(O)cc1)C(=O)N[C@H]1CSCC(=O)NCCN(C(=O)CCC(=O)NCCOCCOCC(=O)NCCOCCOCC(=O)NCCCC[C@H](NC(=O)CCCCCCCCCCCCCCCCCCC(=O)O)C(=O)O)CCNC(=O)CSC[C@@H](C(=O)N[C@@H](Cc2ccccc2)C(=O)N[C@H](C(=O)N[C@@H](CCC(N)=O)C(=O)N[C@@H](Cc2c[nH]c3ccccc23)C(=O)N[C@@H](CC(C)C)C(=O)N[C@@H](CC(C)C)C(=O)N[C@@H](CCC(=O)O)C(=O)NCC(=O)NCC(=O)N2CCC[C@H]2C(=O)N[C@@H](CO)C(=O)N[C@@H](CO)C(=O)NCC(=O)N[C@@H](C)C(=O)N2CCC[C@H]2C(=O)N2CCC[C@H]2C(=O)N2CCC[C@H]2C(=O)N[C@@H](CO)C(N)=O)C(C)C)NC(=O)C(C)(C)NC(=O)[C@H](C)NC(=O)[C@H](Cc2ccc(O)cc2)NC(=O)[C@H](CCCNC(=N)N)NC(=O)[C@H](CCCCN)NC(=O)[C@H](CCC(=O)O)NC1=O` [TG8], for which the EC50 was 243 pM at GLP-1R, 426 pM at GIPR and 836 pM on GCGR.

With `CC[C@H](C)[C@@H]1NC(=O)[C@H](Cc2ccccc2)NC(=O)[C@@H](NC(=O)[C@@H](C)NC(=O)[C@H](CCC(N)=O)NC(=O)[C@H](C)NC(=O)[C@H](CCCCNC(C)=O)NC(=O)[C@H](CCCCN)NC(=O)[C@H](CC(=O)O)NC(=O)[C@H](CC(C)C)NC(=O)[C@](C)(CC(C)C)NC(=O)[C@@H](NC(=O)[C@H](CO)NC(=O)[C@H](Cc2ccc(O)cc2)NC(=O)[C@H](CC(=O)O)NC(=O)[C@H](CO)NC(=O)[C@@H](NC(=O)[C@H](Cc2ccccc2)NC(=O)[C@@H](NC(=O)CNC(=O)[C@H](CCC(N)=O)NC(=O)C(C)(C)NC(=O)[C@@H](N)Cc2ccc(O)cc2)[C@@H](C)O)[C@@H](C)O)[C@@H](C)CC)CSCC(=O)NCCN(C(=O)CCC(=O)NCCOCCOCC(=O)NCCOCCOCC(=O)NCCCC[C@H](NC(=O)CCCCCCCCCCCCCCCCCCC(=O)O)C(=O)O)CCNC(=O)CSC[C@@H](C(=O)NCC(=O)NCC(=O)N2CCC[C@H]2C(=O)N[C@@H](CO)C(=O)N[C@@H](CO)C(=O)NCC(=O)N[C@@H](C)C(=O)N2CCC[C@H]2C(=O)N2CCC[C@H]2C(=O)N2CCC[C@H]2C(=O)N[C@@H](CO)C(N)=O)NC(=O)[C@H](CC(C)C)NC(=O)[C@H](CC(C)C)NC(=O)[C@H](Cc2ccc(O)cc2)NC(=O)[C@H](CCC(=O)O)NC1=O` [TG31] (H-Y[Aib]QGTFTSDYSI[αMeL]LDKK(Ac)AQ[dA]CFIEYLLCGGPSSGAPPPS-NH2; linker 21-28 via X1), the EC50 is 32.7 pM on GLP-1R, 11.4 pM on GIPR and 440 pM at GCGR.

The values above are taken from EP4790066A1, “GLP-1R/GIPR/GCGR TRIPLE AGONIST ANALOGUE AND USE THEREOF” (Shenzhen Bay Laboratory, priority 2023, dated 2025).
